How the values were obtained:
[1] = molar heat capacity at constant pressure; xn = mol fraction of the nth substance listed; conditions: 101 kPa, Liquid
[2] = xn = mol fraction of the nth substance listed; conditions: 101 kPa, Liquid

CCCC[n+]1cccc(C)c1.F[B-](F)(F)F [1-butyl-3-methylpyridinium tetrafluoroborate] + CCO
Conditions | mass density, [2] [kg/m3] | molar heat capacity at constant pressure, [1] [J/K/mol]
293.15 K, x1 = 0.0073 | 800.5 | 113.6
293.15 K, x1 = 0.0126 | 807.8 | 115.2
293.15 K, x1 = 0.0231 | 821.5 | 119.1
293.15 K, x1 = 0.0512 | 855.1 | 129.4
293.15 K, x1 = 0.1003 | 904.1 | 146.4
293.15 K, x1 = 0.2569 | 1010.3 | 190.3
293.15 K, x1 = 0.3847 | 1065.4 | 223.7
293.15 K, x1 = 0.4841 | 1097.1 | –
293.15 K, x1 = 0.5031 | – | 252.6
293.15 K, x1 = 0.5963 | 1124.9 | 276.9
293.15 K, x1 = 0.6919 | – | 301.6
293.15 K, x1 = 0.7107 | 1148 | –
293.15 K, x1 = 0.7784 | – | 324.5
293.15 K, x1 = 0.7966 | 1162.2 | –
293.15 K, x1 = 0.8711 | – | 350
293.15 K, x1 = 0.8923 | – | 355.9
293.15 K, x1 = 0.9514 | 1183.1 | 372.8
293.15 K, x1 = 1 | 1188.6 | 385.8
298.15 K, x1 = 0.0073 | 796.3 | 115.4
298.15 K, x1 = 0.0126 | 803.5 | 117.1
298.15 K, x1 = 0.0231 | 817.3 | 120.9
298.15 K, x1 = 0.0512 | 851 | 131
298.15 K, x1 = 0.1003 | 900.1 | 147.5
298.15 K, x1 = 0.2569 | 1006.4 | 191.3
298.15 K, x1 = 0.3847 | 1061.6 | 224.8
298.15 K, x1 = 0.4841 | 1093.4 | –
298.15 K, x1 = 0.5031 | – | 254.2
298.15 K, x1 = 0.5963 | 1121.3 | 278.5
298.15 K, x1 = 0.6919 | – | 303.4
298.15 K, x1 = 0.7107 | 1144.5 | –
298.15 K, x1 = 0.7784 | – | 326.6
298.15 K, x1 = 0.7966 | 1158.7 | –
298.15 K, x1 = 0.8711 | – | 352.1
298.15 K, x1 = 0.8923 | – | 358.1
298.15 K, x1 = 0.9514 | 1179.6 | 375.1
298.15 K, x1 = 1 | 1185.2 | 387.7
303.15 K, x1 = 0.0073 | 792 | 117.3
303.15 K, x1 = 0.0126 | 799.3 | 119.1
303.15 K, x1 = 0.0231 | 813 | 122.7
303.15 K, x1 = 0.0512 | 846.8 | 132.6
303.15 K, x1 = 0.1003 | 896 | 148.7
303.15 K, x1 = 0.2569 | 1002.6 | 192.4
303.15 K, x1 = 0.3847 | 1057.9 | 226
303.15 K, x1 = 0.4841 | 1089.7 | –
303.15 K, x1 = 0.5031 | – | 255.7
303.15 K, x1 = 0.5963 | 1117.7 | 280.1
303.15 K, x1 = 0.6919 | – | 305.3
303.15 K, x1 = 0.7107 | 1140.9 | –
303.15 K, x1 = 0.7784 | – | 328.9
303.15 K, x1 = 0.7966 | 1155.2 | –
303.15 K, x1 = 0.8711 | – | 354.4
303.15 K, x1 = 0.8923 | – | 360.5
303.15 K, x1 = 0.9514 | 1176.2 | 377.4
303.15 K, x1 = 1 | 1181.7 | 390.1
308.15 K, x1 = 0.0073 | 787.6 | 119.5
308.15 K, x1 = 0.0126 | 794.9 | 121.2
308.15 K, x1 = 0.0231 | 808.8 | 124.7
308.15 K, x1 = 0.0512 | 842.6 | 134.3
308.15 K, x1 = 0.1003 | 891.9 | 150.1
308.15 K, x1 = 0.2569 | 998.7 | 193.6
308.15 K, x1 = 0.3847 | 1054.2 | 227.2
308.15 K, x1 = 0.4841 | 1086.1 | –
308.15 K, x1 = 0.5031 | – | 257.3
308.15 K, x1 = 0.5963 | 1114.2 | 281.8
308.15 K, x1 = 0.6919 | – | 307.3
308.15 K, x1 = 0.7107 | 1137.4 | –
308.15 K, x1 = 0.7784 | – | 331.1
308.15 K, x1 = 0.7966 | 1151.7 | –
308.15 K, x1 = 0.8711 | – | 356.9
308.15 K, x1 = 0.8923 | – | 363
308.15 K, x1 = 0.9514 | 1172.8 | 379.7
308.15 K, x1 = 1 | 1178.3 | 392.8
313.15 K, x1 = 0.0073 | 783.3 | 121.7
313.15 K, x1 = 0.0126 | 790.6 | 123.3
313.15 K, x1 = 0.0231 | 804.5 | 126.7
313.15 K, x1 = 0.0512 | 838.4 | 136
313.15 K, x1 = 0.1003 | 887.8 | 151.6
313.15 K, x1 = 0.2569 | 994.8 | 194.9
313.15 K, x1 = 0.3847 | 1050.4 | 228.5
313.15 K, x1 = 0.4841 | 1082.4 | –
313.15 K, x1 = 0.5031 | – | 258.9
313.15 K, x1 = 0.5963 | 1110.6 | 283.5
313.15 K, x1 = 0.6919 | – | 309.4
313.15 K, x1 = 0.7107 | 1133.9 | –
313.15 K, x1 = 0.7784 | – | 333.5
313.15 K, x1 = 0.7966 | 1148.3 | –
313.15 K, x1 = 0.8711 | – | 359.5
313.15 K, x1 = 0.8923 | – | 365.7
313.15 K, x1 = 0.9514 | 1169.4 | 382
313.15 K, x1 = 1 | 1174.9 | 395.9
318.15 K, x1 = 0.0073 | 778.9 | 124.1
318.15 K, x1 = 0.0126 | 786.2 | 125.6
318.15 K, x1 = 0.0231 | 800.3 | 128.8
318.15 K, x1 = 0.0512 | 834.1 | 137.9
318.15 K, x1 = 0.1003 | 883.7 | 153.2
318.15 K, x1 = 0.2569 | 990.9 | 196.2
318.15 K, x1 = 0.3847 | 1046.7 | 229.8
318.15 K, x1 = 0.4841 | 1078.7 | –
318.15 K, x1 = 0.5031 | – | 260.4
318.15 K, x1 = 0.5963 | 1107.1 | 285.3
318.15 K, x1 = 0.6919 | – | 311.5
318.15 K, x1 = 0.7107 | 1130.4 | –
318.15 K, x1 = 0.7784 | – | 335.9
318.15 K, x1 = 0.7966 | 1144.8 | –
318.15 K, x1 = 0.8711 | – | 362.2
318.15 K, x1 = 0.8923 | – | 368.5
318.15 K, x1 = 0.9514 | 1166 | 384.4
318.15 K, x1 = 1 | 1171.6 | 399.3
